Laboratory results as given in patent publication EP0769966B1, “BIOTIN COMPOUNDS FOR TARGETTING TUMORS AND SITES OF INFECTION” (priority 1994, dated 1995).

Columns and labels:
avidin = avidin (Gallus gallus, UniProt P02701); assay: Competitive binding of F-18 labeled biotin analogs to avidin vs. unlabeled d-biotin; details: in the presence of varying concentrations of unlabeled d-biotin
Experimental: The two biotin derivatives were evaluated for binding to avidin in the presence of varying concentrations of unlabeled d-biotin as described in Example 3.
A preliminary measure of the binding characteristics of the fluoro analogs of biotin were performed. The binding of these novel F-18 labeled biotin analogs to avidin was evaluated by measuring the binding of F-18 labeled biotin analogs to avidin in the presence of varying concentrations of unlabeled d-biotin. Serial dilutions of d-biotin were prepared in phopshate buffered saline pH 7.4 (PBS). A fixed quantity of the no-carrier added F-18 labeled biotin 1 or 2 (10- 100µCi) were mixed with each d-biotin dilution so that the range of concentrations of cold biotin were 3 orders of magnitude greater and less than the concentration of avidin ([…]). A 200 µl aliquot of the F-18 biotin/cold biotin solution was added to 200 µl of avidin in PBS. The solution was vortexed and allowed to incubate for 1 hour after which time a 5 µl aliquot of the solution was analysed by instant thin layer chromatography (Gelman ILTC-SG) using 0.1 M acetate buffer pH 6.0. In this chromatographic system the F-18 biotin analogs bound to avidin origin while the unbound F-18-biotin analogs move to the solvent front. Percent binding of F-18 biotin analog was calculated as [(counts at origin/total counts)* 100]. For each F-18-biotin analog potential impurities remaining at the origin were determined and the results of binding corrected accordingly.

E. coli infected rats = assay: in vivo; format: in vivo, male Sprague-Dawley rats; details: for Infected to normal tissue ratio, Norm mus: infection/normal muscle
Experimental: (§1) A clinical isolate of E. Coli was stored at -70°C in a freezing media containing 20% glycerol and 80% dextrose phosphate until use. Aliquots of bacteria were defrosted and colony counts performed on serial dilutions grown overnight on BBL Brucella agar plates. Based on the colony count, freshly thawed bacteria suspensions were washed and diluted with saline to a final concentration of […]. Aliquots (0.1 ml) of bacterial suspensions (8 x 10^9 organisms/ml) were injected into the right thigh muscle of 48 male Sprague-Dawley rats (125-150 g, Charles River Breeding Laboratories, Burlington, MD). Twenty-four rats were used for each labeled biotin compound. Twenty-four hours after injection, swelling in the right thigh readily appeared, and 24 rats each received 1.67 mg of avidin in saline via the tail vein. […] Rats were sacrificed at 5 and 60 min. post-injection, six rats per time point. Blood samples were obtained by cardiac puncture. Syringes were weighed before and after injection to determine the volume delivered. The activity per unit volume was obtained from standards. A total of eleven different tissues were excised, weighed, and counted. These tissues included blood; bone; lung; liver; adrenal; spleen; kidneys; heart; muscle (thigh); teste; and infected muscle (thigh). The excised tissues were blotted, weighed, and counted in a scintillation well counter. The raw counts were decay corrected. The results were expressed as percent injected dose per gram, and infection-to-normal muscle ratios (mean ± s.d.). The biodistribution results were evaluated by analysis of variance (one-way ANOVA). The effect of avidin […] on biodistribution was evaluated by student t-test.

in vivo = format: in vivo, male Sprague-Dawley rats; details: rat, in vivo, iv
Experimental: as §1

Sequence of avidin (P02701 25-152): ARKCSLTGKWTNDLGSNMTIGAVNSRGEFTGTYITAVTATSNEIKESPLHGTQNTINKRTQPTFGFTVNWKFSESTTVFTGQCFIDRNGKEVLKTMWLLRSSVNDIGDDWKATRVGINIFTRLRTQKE

O=C1N[C@H]2[C@H](CS[C@H]2CCCCC[18F])N1 [Biotin 2]
binding to avidin (avidin): no specific binding
Infected to normal tissue ratio, Adrenal (E. coli infected rats; With Avidin, 5 Min.): 0.22±0.03
Infected to normal tissue ratio, Blood (E. coli infected rats; With Avidin, 5 Min.): 0.51±0.07
Infected to normal tissue ratio, Heart (E. coli infected rats; With Avidin, 5 Min.): 0.46±0.03
Infected to normal tissue ratio, Kidney (E. coli infected rats; With Avidin, 5 Min.): 0.16±0.02
Infected to normal tissue ratio, Liver (E. coli infected rats; With Avidin, 5 Min.): 0.23±0.02
Infected to normal tissue ratio, Lung (E. coli infected rats; With Avidin, 5 Min.): 0.28±0.02
Infected to normal tissue ratio, Spleen (E. coli infected rats; With Avidin, 5 Min.): 0.44±0.05
Infected to normal tissue ratio, Teste (E. coli infected rats; With Avidin, 5 Min.): 0.59±0.03
Infected to normal tissue ratio, bone (E. coli infected rats; With Avidin, 5 Min.): 0.51±0.03
Infected to normal tissue ratio, Norm mus (E. coli infected rats; With Avidin, 5 Min.): 0.65±0.10
Infected to normal tissue ratio, Adrenal (E. coli infected rats; With Avidin, 60 Min.): 0.214±0.03
Infected to normal tissue ratio, Blood (E. coli infected rats; With Avidin, 60 Min.): 0.71±0.05
Infected to normal tissue ratio, Heart (E. coli infected rats; With Avidin, 60 Min.): 0.91±0.05
Infected to normal tissue ratio, Kidney (E. coli infected rats; With Avidin, 60 Min.): 0.13±0.02
Infected to normal tissue ratio, Liver (E. coli infected rats; With Avidin, 60 Min.): 0.33±0.05
Infected to normal tissue ratio, Lung (E. coli infected rats; With Avidin, 60 Min.): 0.33±0.06
Infected to normal tissue ratio, Spleen (E. coli infected rats; With Avidin, 60 Min.): 0.35±0.04
Infected to normal tissue ratio, Teste (E. coli infected rats; With Avidin, 60 Min.): 1.15±0.06
Infected to normal tissue ratio, bone (E. coli infected rats; With Avidin, 60 Min.): 0.17±0.03
Infected to normal tissue ratio, Norm mus (E. coli infected rats; With Avidin, 60 Min.): 0.64±0.07
Infected to normal tissue ratio, Adrenal (E. coli infected rats; Without Avidin, 5 Min.): 0.31±0.02
Infected to normal tissue ratio, Blood (E. coli infected rats; Without Avidin, 5 Min.): 0.56±0.04
Infected to normal tissue ratio, Heart (E. coli infected rats; Without Avidin, 5 Min.): 0.61±0.03
Infected to normal tissue ratio, Kidney (E. coli infected rats; Without Avidin, 5 Min.): 0.30±0.02
Infected to normal tissue ratio, Liver (E. coli infected rats; Without Avidin, 5 Min.): 0.31±0.04
Infected to normal tissue ratio, Lung (E. coli infected rats; Without Avidin, 5 Min.): 0.36±0.05
Infected to normal tissue ratio, Spleen (E. coli infected rats; Without Avidin, 5 Min.): 0.70±0.04
Infected to normal tissue ratio, Teste (E. coli infected rats; Without Avidin, 5 Min.): 0.84±0.10
Infected to normal tissue ratio, bone (E. coli infected rats; Without Avidin, 5 Min.): 0.67±0.05
Infected to normal tissue ratio, Norm mus (E. coli infected rats; Without Avidin, 5 Min.): 0.80±0.12
Infected to normal tissue ratio, Adrenal (E. coli infected rats; Without Avidin, 60 Min.): 0.23±0.05
Infected to normal tissue ratio, Blood (E. coli infected rats; Without Avidin, 60 Min.): 0.68±0.06
Infected to normal tissue ratio, Heart (E. coli infected rats; Without Avidin, 60 Min.): 0.81±0.05
Infected to normal tissue ratio, Kidney (E. coli infected rats; Without Avidin, 60 Min.): 0.35±0.03
Infected to normal tissue ratio, Liver (E. coli infected rats; Without Avidin, 60 Min.): 0.48±0.33
Infected to normal tissue ratio, Lung (E. coli infected rats; Without Avidin, 60 Min.): 0.43±0.20
Infected to normal tissue ratio, Spleen (E. coli infected rats; Without Avidin, 60 Min.): 0.78±0.08
Infected to normal tissue ratio, Teste (E. coli infected rats; Without Avidin, 60 Min.): 1.04±0.11
Infected to normal tissue ratio, bone (E. coli infected rats; Without Avidin, 60 Min.): 0.17±0.03
Infected to normal tissue ratio, Norm mus (E. coli infected rats; Without Avidin, 60 Min.): 0.58 ± 0.07
Infected to normal tissue ratio, Norm mus (E. coli infected rats; Without Avidin, 60 Min., listed as 18F-labeled biotin 2): 0.58±0.07
Tissue distribution, Adrenal (E. coli infected rats; rat, in vivo, iv, 5 min): 2.00±0.24 percent injected dose per gram
Tissue distribution, Blood (E. coli infected rats; rat, in vivo, iv, 5 min): 0.85±0.04 percent injected dose per gram
Tissue distribution, Bone (E. coli infected rats; rat, in vivo, iv, 5 min): 0.86±0.12 percent injected dose per gram
Tissue distribution, Heart (E. coli infected rats; rat, in vivo, iv, 5 min): 0.96±0.10 percent injected dose per gram
Tissue distribution, Inf mus (E. coli infected rats; rat, in vivo, iv, 5 min): 0.44±0.05 percent injected dose per gram
Tissue distribution, Kidney (E. coli infected rats; rat, in vivo, iv, 5 min): 2.70±0.48 percent injected dose per gram
Tissue distribution, Liver (E. coli infected rats; rat, in vivo, iv, 5 min): 1.91±0.22 percent injected dose per gram
Tissue distribution, Lung (E. coli infected rats; rat, in vivo, iv, 5 min): 1.59±0.16 percent injected dose per gram
Tissue distribution, Norm mus (E. coli infected rats; rat, in vivo, iv, 5 min): 0.69±0.10 percent injected dose per gram
Tissue distribution, Spleen (E. coli infected rats; rat, in vivo, iv, 5 min): 0.99±0.10 percent injected dose per gram
Tissue distribution, Teste (E. coli infected rats; rat, in vivo, iv, 5 min): 0.74±0.11 percent injected dose per gram
Tissue distribution, Adrenal (E. coli infected rats; rat, in vivo, iv, 1 h): 0.72±0.12 percent injected dose per gram
Tissue distribution, Bone (E. coli infected rats; rat, in vivo, iv, 1 h): 1.10±0.20 percent injected dose per gram
Tissue distribution, Inf mus (E. coli infected rats; rat, in vivo, iv, 1 h): 0.18±0.02 percent injected dose per gram
Tissue distribution, Liver (E. coli infected rats; rat, in vivo, iv, 1 h): 0.55±0.13 percent injected dose per gram
Tissue distribution, Lung (E. coli infected rats; rat, in vivo, iv, 1 h): 0.55±0.12 percent injected dose per gram
Tissue distribution, Norm mus (E. coli infected rats; rat, in vivo, iv, 1 h): 0.28±0.04 percent injected dose per gram
Tissue distribution, Spleen (E. coli infected rats; rat, in vivo, iv, 1 h): 0.51±0.09 percent injected dose per gram
Tissue distribution, Teste (E. coli infected rats; rat, in vivo, iv, 1 h): 0.15±0.02 percent injected dose per gram
tissue uptake at 5 min (in vivo; Tissue distribution, Adrenal): 1.56 ± 0.14 %ID/g
tissue uptake at 1 h (in vivo; Tissue distribution, Adrenal): 0.92 ± 0.21 %ID/g
tissue uptake at 5 min (in vivo; Tissue distribution, Blood): 0.88 ± 0.07 %ID/g
tissue uptake at 1 h (in vivo; Tissue distribution, Blood): 0.3 ± 0.02 %ID/g
tissue uptake at 5 min (in vivo; Tissue distribution, Bone): 0.73 ± 0.09 %ID/g
tissue uptake at 1 h (in vivo; Tissue distribution, Bone): 1.17 ± 0.21 %ID/g
tissue uptake at 5 min (in vivo; Tissue distribution, Heart): 0.8 ± 0.06 %ID/g
tissue uptake at 1 h (in vivo; Tissue distribution, Heart): 0.25 ± 0.03 %ID/g
tissue uptake at 5 min (in vivo; Tissue distribution, Inf mus): 0.49 ± 0.05 %ID/g
tissue uptake at 1 h (in vivo; Tissue distribution, Inf mus): 0.2 ± 0.02 %ID/g
tissue uptake at 5 min (in vivo; Tissue distribution, Kidney): 1.62 ± 0.18 %ID/g
tissue uptake at 5 min (in vivo; Tissue distribution, Liver): 1.63 ± 0.27 %ID/g
tissue uptake at 1 h (in vivo; Tissue distribution, Liver): 0.42 ± 0.03 %ID/g
tissue uptake at 5 min (in vivo; Tissue distribution, Lung): 1.38 ± 0.21 %ID/g
tissue uptake at 1 h (in vivo; Tissue distribution, Lung): 0.58 ± 0.1 %ID/g
tissue uptake at 5 min (in vivo; Tissue distribution, Norm mus): 0.62 ± 0.09 %ID/g
tissue uptake at 1 h (in vivo; Tissue distribution, Norm mus): 0.35 ± 0.09 %ID/g
tissue uptake at 5 min (in vivo; Tissue distribution, Spleen): 1.7 ± 0.68 %ID/g
tissue uptake at 1 h (in vivo; Tissue distribution, Spleen): 0.26 ± 0.01 %ID/g
tissue uptake at 5 min (in vivo; Tissue distribution, Teste): 0.59 ± 0.08 %ID/g
tissue uptake at 1 h (in vivo; Tissue distribution, Teste): 0.2 ± 0.03 %ID/g
tissue uptake at 1 h (in vivo; ^18F bone uptake (defluorination in vivo)): 1.17 ± 0.21 %ID/g
